Data reported in US9937262B2 (priority 2013, dated 2018).
≈ marks a conversion by molar mass, not a printed value. Read-outs that look alike come from different tables or passages of the source.

Legend:
[1] = Stability (cleavage to parent drug) of prodrug suspensions in PBS pH 7.4; format: physicochemical; conditions: for estimated pseudo first-order rate constant (khyd) for cleavage: PBS pH 7.4, 37° C., calculated from k0 and Sprodrug; for apparent pseudo-zero-order rate constant (k0): appearance of parent drug from suspension in PBS pH 7.4, 37° C.
Procedure: Suspensions of the prodrugs in 67 mM phosphate buffer pH 7.4 (PBS) were prepared by adding 10 mL PBS to approximately 5 mg prodrug. The suspensions were kept unstirred at 37° C. in an incubator hood. At appropriate time intervals over 23 days, about 500 μL samples were taken and after filtration (disposable syringe filters), the solutions were analyzed immediately by HPLC for parent drug and remaining prodrug. Quantitation of parent drug and prodrug was done from peak area measurements in relations to those of standards analysed by HPLC at the same conditions. […] Reversed phase chromatography was performed using a C18 Gemini® RP column (150×4.6 mm, 5 μm particles) (Phenomenex, Torrance, Calif., USA) equipped with a SecurityGuard precolumn (Phenomenex, Torrance, Calif., USA). The flow rate was set at 1 mL/min and the column effluent was monitored at 230 nm. The mobile phase consisted of 35% (v/v) acetonitrile and 65% (v/v) of 0.1% (v/v) phosphoric acid pH 3.2. The retention times varied in the range of 3 to 30 min.
From the observed relatively stable concentration of dissolved prodrugs measured in the suspensions after 8-9 day up to 23 days, the solubilities of the prodrugs (Sprodrug) were determined. In this time interval, the rate of appearance of parent drug was determined and an apparent pseudo-zero-order rate constant (k0) was obtained. By assuming that the dissolution rates were much faster than the conversion of the prodrugs to the parent drug, pseudo first-order rate constants (khyd) for cleavage of the prodrugs were calculated according to:

[2] = Solubility of DPX-2-0006 at pH 3 in the presence of N,N-dimethyl acetamide (DMA); format: physicochemical; conditions: aqueous with cosolvent or surfactant or cyclodextrin, thermodynamic from solid, acidic suspension (pH 3), 37° C.
Procedure: A suspension of DPX-2-0006 was formed by adding 10 mg to 3 mL demineralized water, 0.05 mL 0.100 M HCl was added to obtain a pH of 3. After rotation of the suspension at 37° C. for 1 days, 0.5 mL sample was taken and after filtration (disposable syringe filters), the solution was diluted in methanol:water 1:1 and analyzed immediately by HPLC for prodrug. […] The HPLC method described in Example 29 was applied and the retention time of DPX-2-0006 was 14 min, respectively. N,N-dimethylacetamide (DMA) was added stepwise to the acidic suspension of DPX-2-0006 and the amount of DPX-2-0006 dissolved in the presence of various volumes of DMA was determined after 1-3 days rotation at 37° C. as described above.

[3] = Solubility of the prodrugs in PBS (67 mM phosphate buffer pH 7.4) at 37° C.; format: physicochemical; conditions: 67 mM phosphate buffer pH 7.4 (PBS), aqueous buffer, thermodynamic from solid, read-out: Sprodrug ± SD
Procedure: The determination of the solubility of a prodrug at different pH values of interest according to the present invention is carried by adding excess solid prodrug to a container containing a buffer solution with well-defined pH. The mixture is rotated at constant temperature until an equilibrium between solid prodrug and prodrug in solution has established (that is until the prodrug concentration in the supernatant remains constant). At each measurement the pH of the supernatant is controlled and eventually adjusted to the desired pH.
Suspensions of the prodrugs in 67 mM phosphate buffer pH 7.4 (PBS) were prepared by adding 10 mL PBS to approximately 5 mg prodrug. The suspensions were kept unstirred at 37° C. in an incubator hood. At appropriate time intervals over 23 days, about 500 μL samples were taken and after filtration (disposable syringe filters), the solutions were analyzed immediately by HPLC for parent drug and remaining prodrug. Quantitation of parent drug and prodrug was done from peak area measurements in relations to those of standards analysed by HPLC at the same conditions. […] The flow rate was set at 1 mL/min and the column effluent was monitored at 230 nm. […]
From the observed relatively stable concentration of dissolved prodrugs measured in the suspensions after 8-9 day up to 23 days, the solubilities of the prodrugs (Sprodrug) were determined. […]

[4] = human
Procedure: At 37±0.5° C., the hydrolysis rate of the prodrugs was measured in 80% human plasma. An appropriate aliquot (20-100 μL) of 1 mg/ml prodrug solution in methanol was transferred to 5.0 ml of preheated plasma. At appropriate time intervals, 300 μl sample aliquots were withdrawn and transferred to 600 μl acetonitrile and mixed thoroughly. After centrifugation at 13500 rpm for 5 min, the supernatant was analyzed by HPLC for parent drug and remaining prodrug.

[5] = Precipitation on addition of acidic prodrug solution to 67 mM phosphate buffer pH 7.4; format: physicochemical; conditions: 1.0 mL concentrated aqueous solution pH 3.4 added to 1.0 mL 67 mM phosphate buffer pH 7.4
Procedure: The pH in the suspension was measured to 7.0.

SMILES | estimated pseudo first-order rate constant (khyd) for cleavage [1] | apparent pseudo-zero-order rate constant (k0) [1] | also measured
COc1ccc2cc(C(C)C(=O)OCCn3cnc4ccccc43)ccc2c1 (stereo not shown) [DPX-2-0006, 2-(1H-benzo[d]imidazol-1-yl)ethyl 2-(6-methoxynaphthalen-2-yl)propanoate] | 0.066 day⁻¹ | 1e-06 M/day | solubility ([2]; acidified demineralized water with 5% (v/v) DMA, 5% (v/v) DMA, read-out: solubility in the presence of 5% (v/v) DMA): 250 µg/mL; solubility ([2]; acidified demineralized water with 15% (v/v) DMA, 15% (v/v) DMA, read-out: solubility in the presence of 15% (v/v) DMA): 350 µg/mL; solubility ([2]; acidified demineralized water with 30% (v/v) DMA, 30% (v/v) DMA, read-out: solubility in the presence of 30% (v/v) DMA): 570 µg/mL; solubility ([2]; acidified demineralized water with 50% (v/v) DMA, 50% (v/v) DMA, read-out: solubility in the presence of 50% (v/v) DMA): 2250 µg/mL; solubility thermodynamic [3]: 5 ± 1 µg/mL (≈ 13.4 µM)
O=C(Cc1ccccc1Nc1c(Cl)cccc1Cl)OCCn1cnc2ccccc21 [DPX-1-0006, 2-(1H-benzo[d]imidazol-1-yl)ethyl 2-(2-((2,6-dichlorophenyl)amino)phenyl)acetate] | 0.17 day⁻¹ | 2.4e-06 M/day | 
COc1ccc2cc(C(C)C(=O)OCCn3ccnc3)ccc2c1 (stereo not shown) |  |  | t1/2 in plasma (hydrolysis) [4]: 1.07 h
COc1ccc2cc(C(C)C(=O)OCCn3ccnc3-c3ccccc3)ccc2c1 (stereo not shown) [DPX-2-0007, 2-(2-phenyl-1H-imidazol-1-yl)ethyl 2-(6-methoxynaphthalen-2-yl)propanoate] | 0.065 day⁻¹ | 1e-06 M/day | precipitation on mixing with buffer pH 7.4 [5]: a precipitation was immediately observed
O=C(Cc1ccccc1Nc1c(Cl)cccc1Cl)OCCn1ccnc1-c1ccccc1 [DPX-1-0007, 2-(2-phenyl-1H-imidazol-1-yl)ethyl 2-(2-((2,6-dichlorophenyl)amino)phenyl)acetate] | 0.0029 day⁻¹ | 2.5e-07 M/day | 
O=C(Cc1ccccc1Nc1c(Cl)cccc1Cl)OCCc1ccccn1 [DPX-1-0004, 2-(pyridin-2-yl)ethyl 2-(2-((2,6-dichlorophenyl)amino)phenyl)acetate] | 0.15 day⁻¹ | 1.1e-06 M/day | 
COc1ccc2cc(C(C)C(=O)OCCc3ccccn3)ccc2c1 (stereo not shown) [DPX-2-0004, 2-(pyridin-2-yl)ethyl 2-(6-methoxynaphthalen-2-yl)propanoate] | 0.033 day⁻¹ | 1.7e-06 M/day | 
